From publication PMC7993833, “EDP-938, a novel nucleoprotein inhibitor of respiratory syncytial virus, demonstrates potent antiviral activities in vitro and in a non-human primate model” (PLoS Pathogens, 2021) come the findings set out here.

One experiment concerns RSV-B clinical isolates. Kind of experiment: RSV Virospot reduction assay (ViroClinics), RSV-B isolates from the Netherlands. In kind it is cell-based. The following applies: human respiratory syncytial virus, 10 RSV-B strains from the Netherlands. Here is the method: (§1) To further expand testing against clinical isolates, the compound was assayed against a panel of 10 RSV-A and 10 RSV-B strains mainly isolated from children of age 2–200 weeks in the Netherlands.
(§2) RSV clinical isolates were obtained from Baylor University and Medical College of Wisconsin. MOI of 0.1 used for all clinical isolates except RSV-A 629-9-2 (0.01) and RSV-B 629-24/2007 (0.0044) due to low titer. Virospot reduction assay was run by ViroClinics (Rotterdam, the Netherlands) against 20 additional RSV clinical isolates.

A further experiment concerns RSV-A clinical isolates. Kind of experiment: RSV Virospot reduction assay (ViroClinics), RSV-A isolates from the Netherlands. The following applies: human respiratory syncytial virus, 10 RSV-A strains from the Netherlands. Type of experiment: cell-based. Here is the method:
as §1, §2

In the next experiment the test system is RSV A2. Kind of experiment: RSV-infected African Green monkey model, viral load. Type of experiment: in vivo, African Green monkeys (Chlorocebus). Here is the method:
African Green monkeys (AGMs) are permissive for human RSV infection and support a relatively higher level of viral replication compared to cotton rats and BALB/c mice. It has been previously validated as a non-human primate model for assessing in vivo efficacy of potential RSV vaccines and antiviral drugs. To evaluate the activity of EDP-938 in the AGM model, 4 animals each were treated with 100 mg/kg BID with EDP-938, RSV-604, or vehicle control via oral gavage starting 24 hours prior to RSV challenge and continuing for an additional 5 days. Samples were collected through bronchoalveolar lavage (BAL) and nasopharyngeal (NP) swab at various time points to determine viral load. […] Viral load in the NP swab samples was also determined.
A study of EDP-938 and RSV-604 in the African Green monkey (AGM) animal model was performed by BIOQUAL, Inc (Rockville, Maryland). Methods were similar to those run in a study by Ispas et al.. Six (6) male and 6 female AGMs (Chlorocebus) of 4–5 kg were purchased from PrimGen (Hines, Illinois). Each animal was challenged with 2 x 10^5 PFU of RSV A2 viral inoculum (Virapur, San Diego, CA). Four animals (2 per sex) in each group were treated with EDP-938, RSV-604, or vehicle control (0.5% w/v methylcellulose). The animals were dosed via oral gavage twice daily (every 12 hours), starting 24 hours prior to RSV challenge, and then continuing for an additional 5 days (6 total days of dose administration). Bronchoalveolar lavage (BAL) samples and nasopharyngeal (NP) swabs were collected for viral load determination.

A further experiment relates to RSV-A2. Kind of experiment: RT-qPCR assay, RSV-A2 in Vero cells. Conditions: human respiratory syncytial virus. Type of experiment: cell-based. The protocol:
HEp-2, Vero, and BHK were seeded at 8,000 cells per well (cpw) in growth medium (Dulbecco’s Modified Eagle Medium (DMEM) with 1% GlutaMAX, 1% Penicillin/Streptomycin (P/S), 1% Non-Essential Amino Acids (NEAA), 10% Fetal Bovine Serum (FBS)) or (Minimum Essential Medium (MEM) with 10% FBS, 1% NEAA, 1% P/S) or (Eagle’s Minimum Essential Medium with L-Glutamine, with 10% FBS, 1% P/S) respectively. A549 seeded at 3,000 cpw in F-12K Kaighn’s Modification nutrient mixture with 10% FBS, 1% NEAA, 1% P/S. Cells seeded at time of infection in 96-well plates, final well volume 100μL. Compounds suspended in DMSO, serially diluted and added to wells at 0.5% final DMSO concentration. Viral stocks stabilized with 25% sucrose, previously titered using plaque assay, were added at desired MOI. Sucrose added to cells-only control wells to match percent added with virus. Unless otherwise noted, RSV-A strains were tested at 0.1 MOI and incubated for 5 days in a 37°C, 5% CO2 humidified incubator, and RSV-B at 0.5 MOI for 6 days. Cytopathic effect (CPE) determined using ATPlite (Perkin Elmer) measured with Envision luminometer. For RT-qPCR, RNA was extracted from whole well using Ambion RNAqueous-96 Automated Kit, and RT-qPCR run using Applied Biosystems TaqMan RNA-to-CT 1-Step Kit. […] All EC50s were calculated using the XLFit four-parameter logistic model 200 in Microsoft Excel.
On the technique in general: Real-time PCR tracks product formation cycle by cycle.

Another experiment concerns RSV-A Long. Nature of the experiment: CPE assay (ATPlite), RSV-A Long in HEp-2 cells. Type of experiment: cell-based. The following applies: human respiratory syncytial virus, 120 h, HEp-2, RSV-A Long MOI 0.1, 5 days. For orientation: In ATP-based viability assays light output follows the ATP content of the culture.
The test system of experiment [1] is RSV mRNA transcription and genome replication. Kind of experiment: RSV minigenome system. Type of experiment: cell-based, respiratory syncytial virus.
The test system of a further experiment is RSV. Nature of the experiment: Single-round synchronized infection time-of-addition, RT-qPCR endpoint. Conditions: HEp-2; MOI 3; cold-synchronized; 2x or 20x EC50; added 0-8 hpi; RT-qPCR at 24 hpi. Type of experiment: cell-based, respiratory syncytial virus. Here is the method:
In order to help determine which step of the viral life cycle EDP-938 blocks multiple in vitro time-of-addition studies were performed. In the first study, EDP-938 was administered to cells infected with RSV-A Long at a MOI of 0.1 at 2 hours pre-infection (-2) or 2, 6, or 24 hours post-infection (hpi), and viral CPE evaluated 5 days later. […] A second time-of-addition study explored the ability of EDP-938 to protect not just a population experiencing a spreading infection, but individual cells already infected with RSV. Using a MOI of 3, which infects approximately 95% of all cells, virus was cold-adsorbed to the cells for 1 hour to synchronize infection before transfer to 37°C to induce fusion (marking the 0 hpi time point). Compound was added at times indicated and a 24 hpi RT-qPCR endpoint was employed to constrain viral replication cycle to a single complete cycle.
For single round infection synchronized infection 25,000 HEp-2 cpw seeded 1-day pre-infection. Plates brought to 4°C, viral infection at 3 MOI calculated for 30,000 cpw incubated at 4°C 1hr. Compound added to 0h plate and plates moved to 37°C. Compound added at 2h, 4h, 6h, and 8h post-incubation (when plates moved to 37°C) to appropriate plates. 24 hpi viral copies measured with RT-qPCR as described above.

Regarding `O=C1Nc2ccccc2C(c2ccccc2)=N[C@@H]1Nc1nnc(-c2ncc(C(F)(F)F)cc2N2CCOCC2)o1` [EDP-938], the EC50 – broadly, the midpoint of the concentration-response curve – was found to be 51 nM with RSV-B clinical isolates; 43 nM in the experiment with RSV-A clinical isolates; 91 nM in the experiment with RSV-A2; 52 ± 12 nM in the experiment with RSV-A Long (CPE (ATPlite), read-out: EC50). Besides, the “reduction in peak viral load” value with RSV A2 (100 mg/kg BID oral gavage) was ~ 4 log10. Further, the “effect on RSV viral load vs vehicle control” value in the experiment with RSV A2 (100 mg/kg BID oral gavage, BAL) was “completely suppressed viral replication”. Also, the “viral load reduction in BAL” value with RSV A2 (100 mg/kg BID oral gavage, Day 5, to below limit of detection (100 copies/mL)) is 4 log10. The “viral load reduction in NP swab” value in the experiment with RSV A2 (100 mg/kg BID oral gavage, Day 7, to below limit of detection (100 copies/mL)) is recorded as 4 log10. Besides, the “viral rebound after cessation of treatment” value with RSV A2 (BAL fluid, above the limit of detection) is “no viral rebound was observed”. The EC90 (commonly the point of the concentration-response curve where the effect stands at 90%) came to 101 ± 1.7 nM in the experiment on RSV-A2 and 60 ± 18 nM in the experiment with RSV-A Long (CPE). Moreover, the “effect on mRNA transcription or genome replication” value in experiment [1] is “had no effect”. For the same compound, the “inhibition of viral RNA production by time of addition” value with RSV is on record as “inhibited RNA production at all time points up to 8 hpi”.
